Test: Rabbit Cornea Homogenate stability (esterase) assay, Method 2
Assay type: in vitro ADME
Conditions: for Esterase % Lifitegrast formation at 45 min: 37° C., Method 2 (DPBS pH 7.4); for API Formation rate (%/min): Method 2
Protocol: Determining Rabbit Cornea Homogenate stability of the test compounds was performed using HPLC-MS or UPLC-MS. The assay was performed at two concentrations of Rabbit Cornea Homogenate (0.15 mg/mL and 0.45 mg/mL total protein) so that any hydrolysis observed can be assigned as esterase dependent or not.
Three to five rabbit corneas (e.g. New Zealand Whites (NZW) or Dutch Belted (DB)) of approx. 50 mg each were sliced and scraped with a scalpel and tweezers until reduced to small (1-3 mm), thin pieces. These were transferred into a glass vial containing approximately 2 mL of cold DPBS pH 7.4 buffer.
Sample was cooled intermittently on ice and shear homogenized for 3 minutes, then centrifuged for 3 min at 13,000 g. The supernatant was pipetted off into a vial, and total protein concentration determined at 280 nm. Sample was stored at −78° C.
10 mM Compound DMSO stocks were diluted to 10 μM in a glass vial: 10 μL of 10 mM Compound stock was added to 9,990 μL DPBS, pH 7.4 buffer. Esterase homogenate was diluted to 300 ng/μL and 900 ng/μL in DPBS. […]
A heater shaker was set to 37° C. Into a suitable 96 well plate (Run Plate), 80 μL of 300 or 900 ng/μL esterase homogenate was pipetted into two rows as compounds were analyzed in duplicate (0 min, 2 min, 5 min, 10 min, 20 min and 45 min). The plate was sealed and then warmed at 37° C. for 5 min.
Two 96 shallow-well plates were placed on ice (Kill Plates). To these, 180 μL of 60:40 MeCN-H2O+0.1% acetic acid were added to required rows. The plates were sealed to minimise evaporation.
To both rows of the Run Plate, 80 μL of 10 μM compound solution was added. At the appropriate time point, 20 μL of the assay mixture was added to the matching kill plate well containing 180 μL of 60:40 cold MeCN-H2O+0.1% acetic acid. For lipoic acid analysis, samples were analysed as soon as practicable by LCMS (Waters Xevo TQ-S). For parent conjugate and parent analysis the samples were diluted further 1 in 10: 20 μL supernatant was added to 180 μL of 50:50 MeCN—H2O.
Parent conjugate, parent and keratolytic concentrations were determined against appropriate standard response curves and the half-life (T½) of the parent conjugate was calculated using the peak area or the measured concentration of the parent conjugate at each time point in the linear region of the log-linear plot.

[1] = Cornea Homogenate Conc 0.15 mg/mL
[2] = Cornea Homogenate Conc 0.45 mg/mL

SMILES	Esterase % Lifitegrast formation at 45 min [1]	API Formation rate (%/min) [1]	Esterase % Lifitegrast formation at 45 min [2]	API Formation rate (%/min) [2]
CS(=O)(=O)c1cccc(C[C@H](NC(=O)c2c(Cl)cc3c(c2Cl)CCN(C(=O)c2ccc4ccoc4c2)C3)C(=O)OCOC(=O)CCCC[C@@H]2CCSS2)c1 [Compound 36]	A (percent active pharmaceutical ingredient (API) formation <25%)	a (API formation rate <0.5%/min)	B (percent API formation 25% to 50%)	b (API formation rate 0.5-1.0%/min)
CCOC(=O)CCC(=O)OC(C)OC(=O)[C@H](Cc1cccc(S(C)(=O)=O)c1)NC(=O)c1c(Cl)cc2c(c1Cl)CCN(C(=O)c1ccc3ccoc3c1)C2 (stereo partly drawn) [Compound 37]	C (percent API formation 51% to 75%)	c (API formation rate 1.0-1.5%/min)	D (percent API formation >75%)	c (API formation rate 1.0-1.5%/min)
CC(OC(=O)OCCO)OC(=O)[C@H](Cc1cccc(S(C)(=O)=O)c1)NC(=O)c1c(Cl)cc2c(c1Cl)CCN(C(=O)c1ccc3ccoc3c1)C2 (stereo partly drawn) [Compound 42]	C (percent API formation 51% to 75%)	d (API formation rate >1.5%/min)	C (percent API formation 51% to 75%)	d (API formation rate >1.5%/min)
CC(=O)N1C(C(=O)OC(C)OC(=O)[C@H](Cc2cccc(S(C)(=O)=O)c2)NC(=O)c2c(Cl)cc3c(c2Cl)CCN(C(=O)c2ccc4ccoc4c2)C3)CSC1(C)C (stereo partly drawn) [Compound 26]	A (percent active pharmaceutical ingredient (API) formation <25%)	a (API formation rate <0.5%/min)	A (percent active pharmaceutical ingredient (API) formation <25%)	a (API formation rate <0.5%/min)
CS(=O)(=O)c1cccc(C[C@H](NC(=O)c2c(Cl)cc3c(c2Cl)CCN(C(=O)c2ccc4ccoc4c2)C3)C(=O)OCCO)c1 [Compound 32]	A (percent active pharmaceutical ingredient (API) formation <25%)	a (API formation rate <0.5%/min)	B (percent API formation 25% to 50%)	b (API formation rate 0.5-1.0%/min)
CC(=O)N[C@@H](CSSC[C@H](NC(C)=O)C(=O)OC(C)OC(=O)[C@H](Cc1cccc(S(C)(=O)=O)c1)NC(=O)c1c(Cl)cc2c(c1Cl)CCN(C(=O)c1ccc3ccoc3c1)C2)C(=O)OC(C)OC(=O)[C@H](Cc1cccc(S(C)(=O)=O)c1)NC(=O)c1c(Cl)cc2c(c1Cl)CCN(C(=O)c1ccc3ccoc3c1)C2 (stereo partly drawn) [Compound 49]	A (percent active pharmaceutical ingredient (API) formation <25%)	a (API formation rate <0.5%/min)	A (percent active pharmaceutical ingredient (API) formation <25%)	a (API formation rate <0.5%/min)
CC(=O)N[C@@H](CSSCC[C@@H](CCCCC(=O)OC(C)OC(=O)[C@H](Cc1cccc(S(C)(=O)=O)c1)NC(=O)c1c(Cl)cc2c(c1Cl)CCN(C(=O)c1ccc3ccoc3c1)C2)SSC[C@H](NC(C)=O)C(=O)O)C(=O)O (stereo partly drawn) [Compound 44]	A (percent active pharmaceutical ingredient (API) formation <25%)	a (API formation rate <0.5%/min)	A (percent active pharmaceutical ingredient (API) formation <25%)	a (API formation rate <0.5%/min)
CS(=O)(=O)c1cccc(C[C@H](NC(=O)c2c(Cl)cc3c(c2Cl)CCN(C(=O)c2ccc4ccoc4c2)C3)C(=O)OCCCOC(=O)CCCC[C@@H]2CCSS2)c1 [Compound 35]	A (percent active pharmaceutical ingredient (API) formation <25%)	a (API formation rate <0.5%/min)	A (percent active pharmaceutical ingredient (API) formation <25%)	a (API formation rate <0.5%/min)
CS(=O)(=O)c1cccc(C[C@H](NC(=O)c2c(Cl)cc3c(c2Cl)CCN(C(=O)c2ccc4ccoc4c2)C3)C(=O)OCCOC(=O)CCCC[C@@H]2CCSS2)c1 [Compound 34]	A (percent active pharmaceutical ingredient (API) formation <25%)	a (API formation rate <0.5%/min)	A (percent active pharmaceutical ingredient (API) formation <25%)	a (API formation rate <0.5%/min)
CC(=O)N[C@@H](CS)C(=O)OCCOCCOCCOCCOC(=O)OC(C)OC(=O)[C@H](Cc1cccc(S(C)(=O)=O)c1)NC(=O)c1c(Cl)cc2c(c1Cl)CCN(C(=O)c1ccc3ccoc3c1)C2 (stereo partly drawn) [Compound 29]	A (percent active pharmaceutical ingredient (API) formation <25%)	a (API formation rate <0.5%/min)	A (percent active pharmaceutical ingredient (API) formation <25%)	a (API formation rate <0.5%/min)
CC(=O)N[C@@H](CS)C(=O)OCCOCCOCCOCCOCCOCCOCCOCCOC(=O)OC(C)OC(=O)[C@H](Cc1cccc(S(C)(=O)=O)c1)NC(=O)c1c(Cl)cc2c(c1Cl)CCN(C(=O)c1ccc3ccoc3c1)C2 (stereo partly drawn) [Compound 30]	A (percent active pharmaceutical ingredient (API) formation <25%)	a (API formation rate <0.5%/min)	A (percent active pharmaceutical ingredient (API) formation <25%)	a (API formation rate <0.5%/min)
CC(OC(=O)OCCCO)OC(=O)[C@H](Cc1cccc(S(C)(=O)=O)c1)NC(=O)c1c(Cl)cc2c(c1Cl)CCN(C(=O)c1ccc3ccoc3c1)C2 (stereo partly drawn) [Compound 43]	B (percent API formation 25% to 50%)	b (API formation rate 0.5-1.0%/min)	C (percent API formation 51% to 75%)	c (API formation rate 1.0-1.5%/min)
CS(=O)(=O)c1cccc(C[C@H](NC(=O)c2c(Cl)cc3c(c2Cl)CCN(C(=O)c2ccc4ccoc4c2)C3)C(=O)OCCCO)c1 [Compound 33]	B (percent API formation 25% to 50%)	b (API formation rate 0.5-1.0%/min)	B (percent API formation 25% to 50%)	c (API formation rate 1.0-1.5%/min)
CC(OC(=O)OCCOC(=O)CCCC[C@H]1CCSS1)OC(=O)[C@H](Cc1cccc(S(C)(=O)=O)c1)NC(=O)c1c(Cl)cc2c(c1Cl)CCN(C(=O)c1ccc3ccoc3c1)C2 (stereo partly drawn) [Compound 46]	A (percent active pharmaceutical ingredient (API) formation <25%)	a (API formation rate <0.5%/min)	A (percent active pharmaceutical ingredient (API) formation <25%)	a (API formation rate <0.5%/min)
CC(=O)NC(CSSCC(NC(C)=O)C(=O)OC(C)OC(=O)[C@H](Cc1cccc(S(C)(=O)=O)c1)NC(=O)c1c(Cl)cc2c(c1Cl)CCN(C(=O)c1ccc3ccoc3c1)C2)C(=O)O (stereo partly drawn) [Compound 25]	A (percent active pharmaceutical ingredient (API) formation <25%)	a (API formation rate <0.5%/min)	A (percent active pharmaceutical ingredient (API) formation <25%)	a (API formation rate <0.5%/min)

From patent publication US20230399317A1, “COMPOUNDS AND METHODS FOR THE TREATMENT OF OCULAR DISORDERS” (Azura Ophthalmics Ltd., priority 2020, published 2023)
